Measurements taken from US10457709B2, “Antimicrobial peptides, their variants and uses” (priority 2015, dated 2019).
Where two headings read alike, the source gives them in different places. Square brackets hold non-standard residues; d marks the D form. Peptide text beside a SMILES is read from it.

Tests used:
[1] = system: Pseudomonas aeruginosa clinical strains; type: cell-based; conditions: microdilution, Muller Hinton broth-cation adjusted, 0.02% BSA, 0.2% acetic acid
Outline: (§1)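 Broth microdilution in Mueller Hinton broth, inoculum adjusted to 5.0×10^5 cfu/ml, peptides tested at 0.125 to 128 μg/ml, 37° C for 20 to 24 hours. Yeast assays were run in potato dextrose broth. MIC was taken as the lowest concentration with no visible growth.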

[2] = system: Klebsiella pneumoniae clinical strains; type: cell-based; conditions: microdilution, Muller Hinton broth-cation adjusted, 0.02% BSA, 0.2% acetic acid
Outline: as §1

[3] = system: Escherichia coli clinical strains; type: cell-based; conditions: microdilution, Muller Hinton broth-cation adjusted, 0.02% BSA, 0.2% acetic acid
Outline: as §1

[4] = system: Enterobacter cloacae clinical strains; type: cell-based; design: Minimum inhibitory concentration: unit: μg/ml; conditions: microdilution, Muller Hinton broth-cation adjusted, 0.02% BSA, 0.2% acetic acid
Outline: as §1

[5] = system: Staphylococcus aureus clinical strains; type: cell-based; design: Minimum inhibitory concentration: unit: μg/ml; conditions: microdilution, Muller Hinton broth-cation adjusted, 0.02% BSA, 0.2% acetic acid
Outline: as §1

[6] = system: Proteus mirabilis clinical strains; type: cell-based; design: Minimum inhibitory concentration: unit: μg/ml; conditions: microdilution, Muller Hinton broth-cation adjusted, 0.02% BSA, 0.2% acetic acid
Outline: as §1

[7] = system: Streptococcus pneumoniae clinical strains; type: cell-based; design: Minimum inhibitory concentration: unit: μg/ml; conditions: microdilution, Muller Hinton broth-cation adjusted, 0.02% BSA, 0.2% acetic acid
Outline: as §1

[8] = system: Serratia marcescens clinical strains; type: cell-based; design: Minimum inhibitory concentration: unit: μg/ml; conditions: microdilution, Muller Hinton broth-cation adjusted, 0.02% BSA, 0.2% acetic acid
Outline: as §1

[9] = system: C. glabrata clinical strains; assay: MIC, clinical yeast strains; type: cell-based, Candida glabrata; design: unit: µg/ml
Outline: as §1

[10] = system: C. quillermondiae clinical strains; assay: MIC, clinical yeast strains; type: cell-based, Candida quillermondiae; design: unit: μg/ml; conditions: C. quillermondiae clinical yeast strain 1
Outline: as §1

[11] = system: Candida albicans clinical strains; assay: MIC, clinical yeast strains; type: cell-based; design: unit: μg/ml
Outline: as §1

[12] = system: C. parapsilosis clinical strains; assay: MIC, clinical yeast strains; type: cell-based, Candida parapsilosis; design: unit: µg/ml
Outline: as §1

SMILES: CC(C)C[C@@H](NC(=O)[C@@H](CCCCN)NC(=O)[C@@H](CCCCN)NC(=O)[C@@H](Cc1ccccc1)NC(=O)[C@@H](CC(C)C)NC(=O)[C@@H](Cc1c[nH]c2ccccc12)NC(=O)[C@@H](CCCNC(=N)N)NC(=O)[C@@H](Cc1c[nH]c2ccccc12)NC(=O)[C@@H](CCCCN)NC(=O)[C@@H](CCCNC(=N)N)NC(=O)[C@H](N)CCCCN)C(=O)O [Chain310D] (H-[dK][dR][dK][dW][dR][dW][dL][dF][dK][dK][dL]-OH)
- Minimum inhibitory concentration ([1]; Pseudomonas aeruginosa clinical strain 1): 8
- Minimum inhibitory concentration ([1]; Pseudomonas aeruginosa clinical strain 2): 16
- Minimum inhibitory concentration ([1]; Pseudomonas aeruginosa clinical strain 3): 16
- Minimum inhibitory concentration ([1]; Pseudomonas aeruginosa clinical strain 4): 8
- Minimum inhibitory concentration ([1]; Pseudomonas aeruginosa clinical strain 5): 4
- Minimum inhibitory concentration ([2]; Klebsiella pneumoniae clinical strain 1): 64
- Minimum inhibitory concentration ([2]; Klebsiella pneumoniae clinical strain 2): 64
- Minimum inhibitory concentration ([2]; Klebsiella pneumoniae clinical strain 3): 128
- Minimum inhibitory concentration ([2]; Klebsiella pneumoniae clinical strain 4): 64
- Minimum inhibitory concentration ([2]; Klebsiella pneumoniae clinical strain 5): 32
- Minimum inhibitory concentration ([3]; Escherichia coli clinical strain 1): 4
- Minimum inhibitory concentration ([3]; Escherichia coli clinical strain 2): 32
- Minimum inhibitory concentration ([3]; Escherichia coli clinical strain 3): 16
- Minimum inhibitory concentration ([3]; Escherichia coli clinical strain 4): 16
- Minimum inhibitory concentration ([3]; Escherichia coli clinical strain 5): 16
- Minimum inhibitory concentration ([4]; Enterobacter cloacae clinical strain 1): 128
- Minimum inhibitory concentration ([4]; Enterobacter cloacae clinical strain 2): 64
- Minimum inhibitory concentration ([4]; Enterobacter cloacae clinical strain 3): 16
- Minimum inhibitory concentration ([4]; Enterobacter cloacae clinical strain 4): 8
- Minimum inhibitory concentration ([4]; Enterobacter cloacae clinical strain 5): 16
- Minimum inhibitory concentration ([5]; Staphylococcus aureus clinical strain 1): 8
- Minimum inhibitory concentration ([5]; Staphylococcus aureus clinical strain 2): 16
- Minimum inhibitory concentration ([5]; Staphylococcus aureus clinical strain 3): 8
- Minimum inhibitory concentration ([5]; Staphylococcus aureus clinical strain 4): 8
- Minimum inhibitory concentration ([5]; Staphylococcus aureus clinical strain 5): 4
- Minimum inhibitory concentration ([6]; Proteus mirabilis clinical strain 1): >128
- Minimum inhibitory concentration ([6]; Proteus mirabilis clinical strain 2): >128
- Minimum inhibitory concentration ([6]; Proteus mirabilis clinical strain 3): >128
- Minimum inhibitory concentration ([6]; Proteus mirabilis clinical strain 4): >128
- Minimum inhibitory concentration ([6]; Proteus mirabilis clinical strain 5): >128
- Minimum inhibitory concentration ([7]; Streptococcus pneumoniae clinical strain 1): 128
- Minimum inhibitory concentration ([7]; Streptococcus pneumoniae clinical strain 2): 128
- Minimum inhibitory concentration ([7]; Streptococcus pneumoniae clinical strain 3): 128
- Minimum inhibitory concentration ([7]; Streptococcus pneumoniae clinical strain 4): 128
- Minimum inhibitory concentration ([7]; Streptococcus pneumoniae clinical strain 5): 64
- Minimum inhibitory concentration ([8]; Serratia marcescens clinical strain 1): >128
- Minimum inhibitory concentration ([8]; Serratia marcescens clinical strain 2): >128
- Minimum inhibitory concentration ([8]; Serratia marcescens clinical strain 3): >128
- Minimum inhibitory concentration ([8]; Serratia marcescens clinical strain 4): >128
- Minimum inhibitory concentration ([8]; Serratia marcescens clinical strain 5): >128
- Minimum inhibitory concentration ([9]; C. glabrata clinical yeast strain 1): 16
- Minimum inhibitory concentration ([9]; C. glabrata clinical yeast strain 2): 16
- Minimum inhibitory concentration ([9]; C. glabrata clinical yeast strain 3): 128
- Minimum inhibitory concentration ([9]; C. glabrata clinical yeast strain 4): 128
- Minimum inhibitory concentration [10]: 8
- Minimum inhibitory concentration ([11]; Candida albicans clinical yeast strain 1): 16
- Minimum inhibitory concentration ([11]; Candida albicans clinical yeast strain 2): 16
- Minimum inhibitory concentration ([11]; Candida albicans clinical yeast strain 3): 16
- Minimum inhibitory concentration ([11]; Candida albicans clinical yeast strain 4): 16
- Minimum inhibitory concentration ([11]; Candida albicans clinical yeast strain 5): 16
- Minimum inhibitory concentration ([12]; C. parapsilosis clinical yeast strain 1): 64
- Minimum inhibitory concentration ([12]; C. parapsilosis clinical yeast strain 2): 64
- Minimum inhibitory concentration ([12]; C. parapsilosis clinical yeast strain 3): 64
- Minimum inhibitory concentration ([12]; C. parapsilosis clinical yeast strain 4): 16
